According to patent publication US11844755B2, “Compounds and their use as therapeutically active substances in the treatment and/or reducing signs or symptoms of diseases involving the retinal pigment epithelium” (ENDOGENA THERAPEUTICS, INC., priority 2020, dated 2023):

Columns and labels:
iPSC-fRPE cells [1] = test: RPE pigmentation screen (light absorbance at 510 nm); assay type: cell-based, human; conditions: test compound 5 μM in 0.1% DMSO, 32 days, relative to plate internal DMSO controls (control = 1); for fold induction at 5 µM: Homo sapiens, 768 h
Procedure: (§1) Induced pluripotent stem cell-derived fetal RPE (iPSC-fRPE) cells acquired from the University of California, Santa Barbara, were generated from human fetal RPE cells that were isolated and reprogramed to iPSC, then differentiated and sorted for cellular markers to collect RPE progenitors. Vials were transported frozen on dry ice and stored in −80° C.
(§2) For the phenotypic screens, iPSC-fRPE cells were thawed and cultured in Matrigel-coated flasks with N1VA media containing 1XMEM solution supplemented with 2.2 g/L Sodium Bicarbonate, 0.25 mg/ml Taurine, 0.02 ug/ml Hydrocortisone, 0.013 ug/ml Triiodo Thyronine, 0.1 ug/ml Lipoic acid, 1% MEM Non-Essential Amino Acids, 1% Penicilin/Streptomycin, 2% Neurocult SM1 supplement and 1% N1 supplement. For the initial cultures, Thiazovivin was added to the media at 2 μM for the first 24 hr of incubation, after which the media was replaced with fresh N1VA media for additional three-day incubation at 37° C. with 5% CO2.
(§3) iPSC-fRPE cells were plated with N1VA media at a density of 10,000 cells per well in Matrigel-coated 96-well plates and cultured for 24 h prior to the treatment with test compounds at a final concentration of 5 μM in 0.1% DMSO. Internal controls for each test plate were (a) 0.1% DMSO as a negative control and (b) 0.1% DMSO+10 ng/ml human recombinant bFGF (STEMCELL) as a positive control.
To identify compounds that promote RPE pigmentation, cells were maintained for a period of 32 days and treated with medium containing the test or control compounds according to the media exchange regimen (FIG. 1). The degree of pigmentation was quantified by measuring the light absorbance at 510 nm with Cytation5 imaging reader (BIOTEK). Pigmentation values are finally reported relative to plate internal DMSO controls.

iPSC-fRPE cells [2] = test: RPE cell proliferation (Hoechst 33342 live cell number); assay type: cell-based, human; conditions: test compound 5 μM in 0.1% DMSO, fixed at Day 5, Hoechst 33342 cell number, relative to plate internal DMSO controls (control = 1); for fold induction at 5 µM: Homo sapiens, RPE, 120 h, read-out: Relative Growth
Procedure: as §1, §2, §3
To assess proliferation of RPE cells, a replicate of compound-treated RPE cells were fixed at Day 5 and stained with Hoechst 33342 to determine live cell number with fluorescent microscopy. Cell numbers are reported relative to plate internal DMSO controls.

Compound	Relative Pigmentation (iPSC-fRPE cells [1])	Relative Growth (iPSC-fRPE cells [2])	fold induction at 5 µM (iPSC-fRPE cells [1])	fold induction at 5 µM (iPSC-fRPE cells [2])
2-(chroman-3-yl)-6-(oxazol-5-yl)benzo[d]oxazole [Compound 10]	1.71	1.12	–	–
2-(chroman-3-yl)-6-(oxazol-5-yl)benzo[d]oxazole [Compound 11]	6.24	1.42	–	–
c1ccc2c(c1)CC(c1nc3ccc(-c4cnco4)cc3[nH]1)O2 (racemic) [Compound 3, 2-(2,3-dihydro-1-benzofuran-2-yl)-6-(1,3-oxazol-5-yl)-1H-1,3-benzodiazole]	–	–	2.77	1.36
Fc1ccc2c(c1)OCC(c1nc3ccc(-c4cnco4)cc3[nH]1)C2 (racemic) [Compound 4, 2-(7-fluoro-3,4-dihydro-2H-1-benzopyran-3-yl)-6-(1,3-oxazol-5-yl)-1H-1,3-benzodiazole]	–	–	5.08	1.78
Clc1ccc2c(c1)CC(c1nc3ccc(-c4cnco4)cc3[nH]1)CO2 (racemic) [Compound 5, 2-(6-chloro-3,4-dihydro-2H-1-benzopyran-3-yl)-6-(1,3-oxazol-5-yl)-1H-1,3-benzodiazole]	–	–	1.04	1.52
Fc1cc(F)c2c(c1)CC(c1nc3ccc(-c4cnco4)cc3[nH]1)CO2 (racemic) [Compound 6, 2-(6,8-difluoro-3,4-dihydro-2H-1-benzopyran-3-yl)-6-(1,3-oxazol-5-yl)-1H-1,3-benzodiazole]	–	–	2.3	1.42
Fc1cc(-c2cnco2)cc2[nH]c(C3COc4ccccc4C3)nc12 (racemic) [Compound 8, 2-(3,4-dihydro-2H-1-benzopyran-3-yl)-7-fluoro-5-(1,3-oxazool-5-yl)-1H-1,3-benzodiazole]	–	–	2.75	1.49
Fc1c(-c2cnco2)ccc2nc(C3COc4ccccc4C3)[nH]c12 (racemic) [Compound 9, 2-(3,4-dihydro-2H-1-benzopyran-3-yl)-4-fluoro-5-(1,3-oxazol-5-yl)-1H-1,3-benzodiazole]	–	–	4.27	1.13
c1ccc2c(c1)C[C@H](c1nc3ccc(-c4cnco4)cc3[nH]1)CO2 [Compound 1, (R)-5-(2-(chroman-3-yl)-1H-benzo[d]imidazol-6-yl)oxazole]	–	–	4.98	1.7
c1ccc2c(c1)C[C@@H](c1nc3ccc(-c4cnco4)cc3[nH]1)CO2 [Compound 2, (S)-5-(2-(chroman-3-yl)-1H-benzo[d]imidazol-6-yl)oxazole]	–	–	1.59	1.25
c1ccc2c(c1)CC(c1nc3ccc(-c4cnco4)cc3[nH]1)C2 [Compound 7, 2-(2,3-dihydro-1H-inden-2-yl)-6-(1,3-oxazolyl)-1H-1,3-benzodiazole]	–	–	2.36	1.34
